Measurements taken from PubChem BioAssay (NCI).
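Test compounds were applied to cells in 96-well plates for 48 hours at 5 doses. GI50: concentration for 50% inhibition of growth. TGI marks complete inhibition of growth.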

Key:
Experiment in all cases: NCI tumour cell line growth inhibition, 48 h
MALME-3M melanoma = test system: MALME-3M melanoma
HCT-15 colon = test system: HCT-15 colon
HS 578T breast = test system: HS 578T breast
K-562 leukemia = test system: K-562 leukemia
SNB-19 CNS = test system: SNB-19 CNS
MCF7 breast = test system: MCF7 breast
KM12 colon = test system: KM12 colon
MOLT-4 leukemia = test system: MOLT-4 leukemia
SW-620 colon = test system: SW-620 colon
OVCAR-5 ovarian = test system: OVCAR-5 ovarian
NCI-H522 lung = test system: NCI-H522 lung
NCI-H23 lung = test system: NCI-H23 lung
ACHN renal = test system: ACHN renal
SR leukemia = test system: SR leukemia
SK-MEL-28 melanoma = test system: SK-MEL-28 melanoma
M14 melanoma = test system: M14 melanoma
A498 renal = test system: A498 renal
IGROV1 ovarian = test system: IGROV1 ovarian
BT-549 breast = test system: BT-549 breast
DU-145 prostate = test system: DU-145 prostate
CCRF-CEM leukemia = test system: CCRF-CEM leukemia
UACC-62 melanoma = test system: UACC-62 melanoma
HOP-92 NSCLC = test system: HOP-92 NSCLC
NCI/ADR-RES ovarian = test system: NCI/ADR-RES ovarian
HT29 colon = test system: HT29 colon
COLO 205 colon = test system: COLO 205 colon
HCT-116 colon = test system: HCT-116 colon
SF-539 CNS = test system: SF-539 CNS
PC-3 prostate = test system: PC-3 prostate
MDA-MB-468 breast = test system: MDA-MB-468 breast
EKVX NSCLC = test system: EKVX NSCLC
HL-60(TB) leukemia = test system: HL-60(TB) leukemia
NCI-H460 lung = test system: NCI-H460 lung
OVCAR-4 ovarian = test system: OVCAR-4 ovarian
SK-OV-3 ovarian = test system: SK-OV-3 ovarian
HOP-62 NSCLC = test system: HOP-62 NSCLC
SK-MEL-5 melanoma = test system: SK-MEL-5 melanoma
HCC-2998 colon = test system: HCC-2998 colon
UACC-257 melanoma = test system: UACC-257 melanoma
TK-10 renal = test system: TK-10 renal
U251 CNS = test system: U251 CNS
SF-268 CNS = test system: SF-268 CNS
OVCAR-8 ovarian = test system: OVCAR-8 ovarian
CAKI-1 renal = test system: CAKI-1 renal
LOX IMVI melanoma = test system: LOX IMVI melanoma
SF-295 CNS = test system: SF-295 CNS
SN12C renal = test system: SN12C renal
OVCAR-3 ovarian = test system: OVCAR-3 ovarian
MDA-MB-435 = test system: MDA-MB-435
786-0 renal = test system: 786-0 renal
NCI-H226 lung = test system: NCI-H226 lung
A549 NSCLC = test system: A549 NSCLC
T-47D breast = test system: T-47D breast
RXF 393 renal = test system: RXF 393 renal
RPMI-8226 leukemia = test system: RPMI-8226 leukemia

`CC[C@]12C=CCN3CC[C@@]4(c5ccc(OC)cc5N(C)[C@H]4[C@@](O)(C(=O)OC)[C@@H]1OC(=O)CCCC[P+](c1ccc(F)cc1)(c1ccc(F)cc1)c1ccc(F)cc1)[C@@H]32` was tested, and the GI50 (MALME-3M melanoma) was 13.5 µM, the TGI (MALME-3M melanoma) was 27.3 µM and the GI50 (HCT-15 colon) was greater than 100 µM. It also gave a TGI (HCT-15 colon) greater than 100 µM, a GI50 (HS 578T breast) of 16.9 µM and a TGI (HS 578T breast) of 37.5 µM. The GI50 (K-562 leukemia) was 11.3 µM, the TGI (K-562 leukemia) was 38.7 µM and the GI50 (SNB-19 CNS) was 13 µM. For the same molecule, the TGI (SNB-19 CNS) was 26.7 µM, the GI50 (MCF7 breast) was 11.5 µM and the TGI (MCF7 breast) was 24.5 µM. The GI50 (KM12 colon) was 13.4 µM, the TGI (KM12 colon) was 27.7 µM and the GI50 (MOLT-4 leukemia) was 14.7 µM. The TGI (MOLT-4 leukemia) was 32.6 µM, the GI50 (SW-620 colon) was 16.5 µM and the TGI (SW-620 colon) was 37.8 µM. For the same molecule, the GI50 (OVCAR-5 ovarian) was 29.1 µM, the TGI (OVCAR-5 ovarian) was greater than 100 µM and the GI50 (NCI-H522 lung) was 5.44 µM. For the same molecule, the TGI (NCI-H522 lung) was 20.2 µM, the GI50 (NCI-H23 lung) was 20.1 µM and the TGI (NCI-H23 lung) was 53.5 µM. It also gave a GI50 (ACHN renal) greater than 100 µM, a TGI (ACHN renal) greater than 100 µM and a GI50 (SR leukemia) of 14.5 µM. For the same molecule, the TGI (SR leukemia) was 31.9 µM, the GI50 (SK-MEL-28 melanoma) was 8.28 µM and the TGI (SK-MEL-28 melanoma) was 20.7 µM. For the same molecule, the GI50 (M14 melanoma) was 14.7 µM, the TGI (M14 melanoma) was 30 µM and the GI50 (A498 renal) was greater than 100 µM. It also gave a TGI (A498 renal) greater than 100 µM, a GI50 (IGROV1 ovarian) of 10.8 µM and a TGI (IGROV1 ovarian) of 24.3 µM. For the same molecule, the GI50 (BT-549 breast) was 12.9 µM, the TGI (BT-549 breast) was 27.1 µM and the GI50 (DU-145 prostate) was 35.4 µM. The TGI (DU-145 prostate) was greater than 100 µM, the GI50 (CCRF-CEM leukemia) was 13.6 µM and the TGI (CCRF-CEM leukemia) was 30.3 µM. For the same molecule, the GI50 (UACC-62 melanoma) was 11.3 µM, the TGI (UACC-62 melanoma) was 23.5 µM and the GI50 (HOP-92 NSCLC) was 6.32 µM. For the same molecule, the TGI (HOP-92 NSCLC) was 23.5 µM, the GI50 (NCI/ADR-RES ovarian) was greater than 100 µM and the TGI (NCI/ADR-RES ovarian) was greater than 100 µM. It also gave a GI50 (HT29 colon) of 15.4 µM, a TGI (HT29 colon) of 38.8 µM and a GI50 (COLO 205 colon) of 4.63 µM. It also gave a TGI (COLO 205 colon) of 16.4 µM, a GI50 (HCT-116 colon) of 25.9 µM and a TGI (HCT-116 colon) greater than 100 µM. The GI50 (SF-539 CNS) was 21.9 µM, the TGI (SF-539 CNS) was 62.4 µM and the GI50 (PC-3 prostate) was 16.4 µM. For the same molecule, the TGI (PC-3 prostate) was 56.7 µM, the GI50 (MDA-MB-468 breast) was 2610 nM and the TGI (MDA-MB-468 breast) was 11.1 µM. For the same molecule, the GI50 (EKVX NSCLC) was 21 µM, the TGI (EKVX NSCLC) was greater than 100 µM and the GI50 (HL-60(TB) leukemia) was 2110 nM. It also gave a TGI (HL-60(TB) leukemia) of 13.2 µM, a GI50 (NCI-H460 lung) of 29.4 µM and a TGI (NCI-H460 lung) greater than 100 µM. The GI50 (OVCAR-4 ovarian) was 25.1 µM, the TGI (OVCAR-4 ovarian) was greater than 100 µM and the GI50 (SK-OV-3 ovarian) was 23.5 µM. The TGI (SK-OV-3 ovarian) was 66.5 µM, the GI50 (HOP-62 NSCLC) was 25.5 µM and the TGI (HOP-62 NSCLC) was 73.4 µM. For the same molecule, the GI50 (SK-MEL-5 melanoma) was 17.1 µM, the TGI (SK-MEL-5 melanoma) was 30.8 µM and the GI50 (HCC-2998 colon) was 12.5 µM. For the same molecule, the TGI (HCC-2998 colon) was 25.5 µM, the GI50 (UACC-257 melanoma) was 5.58 µM and the TGI (UACC-257 melanoma) was 19.2 µM. For the same molecule, the GI50 (TK-10 renal) was 21.2 µM, the TGI (TK-10 renal) was 52.6 µM and the GI50 (U251 CNS) was 10.7 µM. The TGI (U251 CNS) was 23.3 µM, the GI50 (SF-268 CNS) was 17.6 µM and the TGI (SF-268 CNS) was 38.3 µM. For the same molecule, the GI50 (OVCAR-8 ovarian) was 29.4 µM, the TGI (OVCAR-8 ovarian) was greater than 100 µM and the GI50 (CAKI-1 renal) was greater than 100 µM. The TGI (CAKI-1 renal) was greater than 100 µM, the GI50 (LOX IMVI melanoma) was 16.8 µM and the TGI (LOX IMVI melanoma) was 30.8 µM. The GI50 (SF-295 CNS) was 30.6 µM, the TGI (SF-295 CNS) was greater than 100 µM and the GI50 (SN12C renal) was 28.6 µM. It also gave a TGI (SN12C renal) greater than 100 µM, a GI50 (OVCAR-3 ovarian) of 9.3 µM and a TGI (OVCAR-3 ovarian) of 23.3 µM. The GI50 (MDA-MB-435) was 12.9 µM, the TGI (MDA-MB-435) was 28.4 µM and the GI50 (786-0 renal) was 34.1 µM. For the same molecule, the TGI (786-0 renal) was greater than 100 µM, the GI50 (NCI-H226 lung) was 27.3 µM and the TGI (NCI-H226 lung) was greater than 100 µM. It also gave a GI50 (A549 NSCLC) of 33.8 µM, a TGI (A549 NSCLC) greater than 100 µM and a GI50 (T-47D breast) of 11.5 µM. The TGI (T-47D breast) was 43.2 µM, the GI50 (RXF 393 renal) was 13.3 µM and the TGI (RXF 393 renal) was 31.6 µM. For the same molecule, the GI50 (RPMI-8226 leukemia) was 2970 nM and the TGI (RPMI-8226 leukemia) was 14.9 µM.
